Experimental data taken from patent US20220389013A1, “PYRIDOPYRIMIDINONE COMPOUNDS AND APPLICATIONS THEREOF” (BeBetter Med Inc., priority 2020, published 2022).
Counter-ions that a name gives are not always drawn. One block for each compound: values may come before it.

Experiments:
in vitro = details: human
Description: (§3) In this experiment, a monolayer of Caco-2 cells was used to assess drug penetration. […] The apparent permeability coefficient from apical to basolateral (Papp A-B) and the basolateral to apical permeability coefficient (Papp B-A) of compounds represent the ability of the compound to be transported in both directions, respectively.
(§4) Apparent permeability coefficient (Papp)=(the volume of the receiver chamber/the filter surface area×culture time))×(the drug concentration of receiver chamber at the end of culture/(the drug concentration of donor chamber at the initial culture×dilution factor)
(§5) In this experiment, Millipore cell culture plates (PSHT 010 R5): membrane area=0.7 cm^2, recipient side volume=0.8 mL (A-to-B) or 0.4 mL (B-to-A), incubation time=90 minutes.

mouse tumors = details: mouse experiments, alone or combined; cited from earlier work
MIA-Paca2 (KRAS G12C) = assay: Tumor cell proliferation inhibition assay (CellTiter-Glo), MIA-Paca2; type: cell-based, Human; details: 72 hours, 10% fetal bovine serum
Summary of the method: (§1)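 Growth was read as ATP by CellTiter-Glo luminescence, with inhibition normalised to DMSO (max) and medium-only (min) wells. IC50 came from sigmoidal dose-response fits.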

[1] = Pharmacokinetic (PK) experiment in rats by gavage; type: in vivo; details: rat, plasma, po, male SD rats, 20 mg/kg
[2] = tested on: MIA Paca2 T2 xenograft tumor; assay: MIA Paca2 T2 human pancreatic cancer xenograft mouse subcutaneous model
Procedure: MIAPaca2 cells were cultured to sufficient numbers in DMEM containing 10% fetal bovine serum and 2.5% horse serum, then harvested. 5 million cells suspended in 0.1 mL of serum-free medium and Matrigel (1:1, v/v) were injected subcutaneously into the right flank area of each mouse, carefully avoiding blood vessels and serially passaged 2 times in animals. The size of the tumor was measured using a vernier caliper, and the method for calculating the tumor volume and T/C value was the same as above. […] The compounds were respectively dissolved in 30% sulfobutyl-β-cyclodextrin (SBE-β-CD) and 1.5 equivalent of 1 M HCl (pH 4-5) at the corresponding concentrations. 10 mL/kg was orally administered continuously by gavage for 28 days.

H358 xenograft tumor [3] = assay: H358 xenograft model, dose-response of compound 73-1; type: in vivo, BALB/c nude mice; details: po, qd, 28 days
Procedure: (§2) In this experiment, the anticancer activities of compounds 73-1 and 90-1 in the subcutaneous tumor model of H358 human non-small cell lung cancer xenograft mice, and the dose-response relationship of compound 73-1 in inhibiting the growth of H358 xenograft tumors were investigated. […] When H358 cells were cultured to a sufficient number, cells were collected. […] Vernier calipers were used to measure the size of the tumor. The formula for calculating the tumor volume is: tumor volume=(length×width^2)/2, and the formula for calculating the relative tumor proliferation rate T/C value is: T/C (%)=100×ΔT/ΔC (ΔT>0) or T/T (%)=100×ΔT/T0 (ΔT<0). ΔT is the difference of tumor volume in the treatment group, ΔC is the difference of tumor volume in the vehicle control group, and T0 is the tumor volume in the treatment group before administration.
In the dose-response study of compound 73-1 inhibiting the growth of H358 xenograft tumors, when the H358 tumor volume reached an average of about 183 mm^3, the animals were respectively divided into different treatment groups, including vehicle (30% sulfobutyl-β-Cyclodextrin) control group, compound 73-1 orally administered group with doses of 12.5 mg/kg, 25 mg/kg, 50 mg/kg, and 100 mg/kg (n=8/group), administered once every day. […] All the groups were administered continuously for 28 days with 10 mL/kg oral administration.

H358 (KRAS G12C) = assay: Tumor cell proliferation inhibition assay (CellTiter-Glo), H358; type: cell-based, Human; details: Homo sapiens, NCI-H358, 72 h, 10% fetal bovine serum
Summary of the method: as §1

[4] = Caco-2 cell transmembrane transport experiment; details: human; for Papp B→A at 90 min, 10 μM: basolateral to apical
Description: as §3, §4, §5

H23 (KRAS G12C) = assay: Tumor cell proliferation inhibition assay (CellTiter-Glo), H23; type: cell-based, Human; details: Homo sapiens, 72 h, 10% fetal bovine serum
Procedure: The H358, H23 or MIA-Paca2 cells were digested, centrifuged and resuspended, and the cell density was measured with a Scepter automatic cell counter. Cells were diluted to a solution containing 44,000 cells per milliliter, then added to a 96-well culture plate at 90 μL per well. The 96-well plate was placed in a 5% CO2 incubator at 37° C., and after the cells were cultured for 24 hours, different concentrations of the compounds to be tested were added. Cells were incubated with compounds in the presence of 10% fetal bovine serum for 72 hours. The inhibition of cell growth was assessed by measuring ATP levels by using the CellTiter-Glo Luminescent Cell Viability Assay Kit (details in manufacturer's instructions). In brief, 30 μL of CellTiter-Glo reagent was added to each well and the plate was shaken for 10 minutes to induce cell lysis, then the fluorescent signal was detected and recorded with a Fluoroskan Ascent FL (Thermo). Maximum signal values were obtained from cells treated with DMSO for 72 hours. Minimum signal values were obtained with medium only (zero cell number). Inhibition rate %=(maximum signal value-compound signal value)/(maximum signal value-minimum signal value)×100%. Data were processed by using Graphpad prism5 software. IC50 values were calculated using a sigmoidal dose-response curve.

H358 xenograft tumor [5] = assay: H358 human non-small cell lung cancer subcutaneous mouse xenograft model, anticancer activity; type: in vivo, BALB/c nude mice; details: 100 mg/kg, po, qd, 26 days
Procedure: as §2
The dosage of the all groups, except the vehicle control group, was 100 mg/kg, 10 mL/kg orally administered by gavage, once a day. […] All the groups were administered continuously for 26 days.

KRAS-G12C/SOS1 = target: T1, KRAS-G12C/SOS1 (Homo sapiens, UniProt P01116, G12C); assay: HTRF KRAS-G12C/SOS1 binding assay; details: 2 hours room temperature
T1 construct: purchased Cisbio #63ADK000CB16PEG
T1 sequence (P01116 1-188 isoform P01116-2 G12C): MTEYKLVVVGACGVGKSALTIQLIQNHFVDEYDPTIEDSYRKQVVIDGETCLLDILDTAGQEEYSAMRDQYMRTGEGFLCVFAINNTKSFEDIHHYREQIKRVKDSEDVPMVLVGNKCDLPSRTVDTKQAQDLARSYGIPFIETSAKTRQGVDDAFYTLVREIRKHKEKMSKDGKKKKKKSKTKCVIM

efflux ratio at 90 min, 10 μM (in vitro; Caco-2, pH 7.4): 0.93
Papp A→B at 90 min, 10 μM (in vitro; Caco-2, pH 7.4, Papp A-B Sample_01): 33.3 ×10⁻⁶ cm/s
Papp A→B at 90 min, 10 μM (in vitro; Caco-2, pH 7.4, Papp A-B Sample_02): 36.4 ×10⁻⁶ cm/s
Papp A→B at 90 min, 10 μM (in vitro; Caco-2, pH 7.4, Papp A-B mean value): 34.8 ×10⁻⁶ cm/s
Papp B→A at 90 min, 10 μM (in vitro; Caco-2, pH 7.4, Papp B-A Sample_01): 29.4 ×10⁻⁶ cm/s
Papp B→A at 90 min, 10 μM (in vitro; Caco-2, pH 7.4, Papp B-A Sample_02): 35.4 ×10⁻⁶ cm/s
Papp B→A at 90 min, 10 μM (in vitro; Caco-2, pH 7.4, Papp B-A mean value): 32.4 ×10⁻⁶ cm/s
Compound: COCCc1ccc(OCC(O)CNC(C)C)cc1 (stereo not drawn) [Metoprolol Tartrate]

Compound: pembrolizumab: PD-1 antibody
mice whose tumor completely disappeared (mouse tumors): 10%

Compound: C=CC(=O)N1CCN(c2nc(=O)n(-c3c(C)ccnc3C(C)C)c3nc(-c4c(F)ccc5ccoc45)c(Cl)cc23)[C@@H](C)C1 (single isomer, unassigned) [Compound 73-1]
IC50 (MIA-Paca2 (KRAS G12C)): < 10 nM
AUC(0-inf) [1]: 4320 ng·h/mL
Cmax [1]: 1750 ng/mL
Tmax [1]: 0.67 h
half-life [1]: 3.23 h
AUC(0-t) ([1]; read-out: AUC0-24): 4300 ng·h/mL
Antitumor activity T/C value (%) ([2]; 50 mg/kg, po, bid, 28 days): −100%
Changes of body weight (%) ([2]; 50 mg/kg, po, bid, 28 days): 10.2%
effect on tumor (in words) ([2]; 28 days oral, 73-1 50 mg/kg bid, AMG510 100 mg/kg qd): cause the tumor to disappear completely
Antitumor activity T/C value (%) (H358 xenograft tumor [3]; 12.5 mg/kg): −68.5%
Changes of body weight (%) (H358 xenograft tumor [3]; 12.5 mg/kg): −0.2%
Antitumor activity T/C value (%) (H358 xenograft tumor [3]; 25 mg/kg): −74.0%
Changes of body weight (%) (H358 xenograft tumor [3]; 25 mg/kg): −0.1%
Antitumor activity T/C value (%) (H358 xenograft tumor [3]; 50 mg/kg): −93.5%
Changes of body weight (%) (H358 xenograft tumor [3]; 50 mg/kg): 2.2%
Antitumor activity T/C value (%) (H358 xenograft tumor [3]; 100 mg/kg): −96.6%
Changes of body weight (%) (H358 xenograft tumor [3]; 100 mg/kg): 1.9%
clinical symptoms and body weight (in words) (H358 xenograft tumor [3]; 12.5, 25, 50 and 100 mg/kg, versus vehicle control): no significant clinical symptoms and no significant changes in body weight
effect on tumor growth (in words) (H358 xenograft tumor [3]; 12.5-100 mg/kg): inhibited the growth of H358 tumor in a dose-dependent manner and could cause partial disappearance of tumor
tolerability (in words) (H358 xenograft tumor [3]; 12.5-100 mg/kg): well tolerated
IC50 (H358 (KRAS G12C)): < 10 nM
efflux ratio at 90 min, 10 μM ([4]; Caco-2, pH 7.4): 1.12
Papp A→B at 90 min, 10 μM ([4]; Caco-2, pH 7.4, Papp A-B Sample_01, 10 μM, pH 7.4, 37° C., 90 min, apical to basolateral): 16 ×10⁻⁶ cm/s
Papp A→B at 90 min, 10 μM ([4]; Caco-2, pH 7.4, Papp A-B Sample_02, 10 μM, pH 7.4, 37° C., 90 min, apical to basolateral): 20.8 ×10⁻⁶ cm/s
Papp A→B at 90 min, 10 μM ([4]; Caco-2, pH 7.4, Papp A-B mean value, 10 μM, pH 7.4, 37° C., 90 min, apical to basolateral): 18.4 ×10⁻⁶ cm/s
Papp B→A at 90 min, 10 μM ([4]; Caco-2, pH 7.4, Papp B-A Sample_01, 10 μM, pH 7.4, 37° C., 90 min): 17.2 ×10⁻⁶ cm/s
Papp B→A at 90 min, 10 μM ([4]; Caco-2, pH 7.4, Papp B-A Sample_02, 10 μM, pH 7.4, 37° C., 90 min): 24 ×10⁻⁶ cm/s
Papp B→A at 90 min, 10 μM ([4]; Caco-2, pH 7.4, Papp B-A mean value, 10 μM, pH 7.4, 37° C., 90 min): 20.6 ×10⁻⁶ cm/s
Papp A→B at 90 min, 10 μM ([4]; Caco-2, pH 7.4, apparent permeability coefficient Papp A-B, Caco-2): > 10 ×10⁻⁶ cm/s
IC50 (H23 (KRAS G12C)): < 10 nM
Changes of body weight (%) (H358 xenograft tumor [5]): 10.1%
effect on tumor (in words) (H358 xenograft tumor [5]): cause the tumor to disappear completely
tumor suppressor T/C value (%) (H358 xenograft tumor [5]): −100.0%
IC50 (KRAS-G12C/SOS1): < 50 nM
